Consider 44 compounds from ChEMBL document CHEMBL1201862, “PubChem BioAssay data set” (2004).

Some targets named below: Cytochrome P450 3A4 (Homo sapiens, UniProt P08684); Cytochrome P450 2C9 (Homo sapiens, UniProt P11712); Cytochrome P450 2D6 (Homo sapiens, UniProt P10635).
Another test deals with Cytochrome P450 2C19 (Homo sapiens, UniProt P33261). The experiment in a line: Cytochrome panel assay with activity outcomes. Panel member name: p450-cyp2c19 Compounds with AC50 equal or less than 10 uM are considered active. Type of test: functional. Particulars: read-out: AC50.
Chain of Cytochrome P450 2C19 (P33261 whole entry): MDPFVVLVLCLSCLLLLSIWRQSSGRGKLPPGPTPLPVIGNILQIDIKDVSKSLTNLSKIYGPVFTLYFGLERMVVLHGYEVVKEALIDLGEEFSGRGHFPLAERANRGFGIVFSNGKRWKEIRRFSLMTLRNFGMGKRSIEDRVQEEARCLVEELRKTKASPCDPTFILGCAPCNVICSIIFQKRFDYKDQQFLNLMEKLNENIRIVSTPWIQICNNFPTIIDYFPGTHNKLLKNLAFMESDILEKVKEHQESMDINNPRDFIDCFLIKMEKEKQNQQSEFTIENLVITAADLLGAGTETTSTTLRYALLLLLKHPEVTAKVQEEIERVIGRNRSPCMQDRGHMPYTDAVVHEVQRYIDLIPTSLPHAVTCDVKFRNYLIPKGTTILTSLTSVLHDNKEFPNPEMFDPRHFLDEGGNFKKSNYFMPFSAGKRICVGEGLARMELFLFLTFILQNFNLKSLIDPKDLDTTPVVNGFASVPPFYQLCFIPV
The test system of the next test is INS1. Nature of the test: beta cell apoptosis inhibitors, cytokine rescue, dose response, luminescence, retest (AID 449756).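 Note: cell death triggered by IL-1 beta plus TNF-alpha plus IFN-gamma mixture; protective hits raise ATP signal compared with cytokine alone wells.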 The class given is functional, cell-based. Particulars: Rattus norvegicus.
Test [1] is described as follows: inhibitors of firefly luciferase expression or activity, dose response, H4 neuroglioma cells, luminescence (AID 1990). The class given is functional, cell-based.
Test [2] in a line: Luminescence Cell-Based Dose Response HTS to Identify Inhibitors of 5'UTR Stem-Loop Driven Prion Protein mRNA Translation in H4 Neuroglioblastoma Cells. [Related pubchem assays: 1827 (Project Summary), 1813 (Primary HTS)]. The class given is functional.
Test [3] in a line: inhibitors of SNCA 5'UTR-driven reporter translation, confirmation, H4 neuroglioma cells, luminescence (AID 1988). The class given is functional, cell-based.
A short description of test [4]: HEp-2 cell cytotoxicity, dose response, cytotoxicity control for RSV inhibitor project, HTS (AID 2410). Particulars: human respiratory syncytial virus. Type of test: functional.
In test [5] the test system is Streptococcus sp. 'group A'. The experiment in a line: growth inhibition of control SK(-) GAS strain, dose response, counter-screen for streptokinase expression inhibitor project, luminescence, kanamycin, BacTiterGlo, confirmation (AID 1900). The class given is functional, organism-based. (In general: A counterscreen serves to expose hits that act by an unwanted route or on another target.)

In a further test the target is T1, Streptokinase A (Streptococcus pyogenes serotype M1, UniProt P10520).
T1 sequence (P10520 whole entry): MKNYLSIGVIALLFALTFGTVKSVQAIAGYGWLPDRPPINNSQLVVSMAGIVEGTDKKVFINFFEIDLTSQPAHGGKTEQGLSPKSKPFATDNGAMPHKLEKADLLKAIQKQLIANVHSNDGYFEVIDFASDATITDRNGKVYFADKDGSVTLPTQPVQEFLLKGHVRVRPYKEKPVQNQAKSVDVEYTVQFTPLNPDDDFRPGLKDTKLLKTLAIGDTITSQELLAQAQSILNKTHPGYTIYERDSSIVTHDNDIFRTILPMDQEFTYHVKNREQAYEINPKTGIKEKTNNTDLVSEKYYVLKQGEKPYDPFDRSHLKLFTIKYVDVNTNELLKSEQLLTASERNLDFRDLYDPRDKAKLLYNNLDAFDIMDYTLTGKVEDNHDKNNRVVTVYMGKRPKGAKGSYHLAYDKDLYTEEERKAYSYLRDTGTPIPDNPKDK
The experiment in a line: S. pyogenes streptokinase expression inhibitors, potency, dose response, plasminogen activation absorbance, OD405 (AID 1914).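 Note: secreted streptokinase activity via plasminogen activation per viability signal from cell pellet.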 Type of test: functional, Streptococcus pyogenes M1 GAS.

The test system of a further test is Streptococcus. The experiment in a line: Group A Streptococcus viability loss, dose response, counter-screen for streptokinase expression inhibitor project, luminescence, BacTiterGlo (AID 1915).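 Note: potency for reduction of bacterial viability or growth.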 Type of test: functional, organism-based.

Activity calls are given as the source filed them. Some results are limits rather than exact numbers.

Chain of Cytochrome P450 2D6 (P10635 whole entry): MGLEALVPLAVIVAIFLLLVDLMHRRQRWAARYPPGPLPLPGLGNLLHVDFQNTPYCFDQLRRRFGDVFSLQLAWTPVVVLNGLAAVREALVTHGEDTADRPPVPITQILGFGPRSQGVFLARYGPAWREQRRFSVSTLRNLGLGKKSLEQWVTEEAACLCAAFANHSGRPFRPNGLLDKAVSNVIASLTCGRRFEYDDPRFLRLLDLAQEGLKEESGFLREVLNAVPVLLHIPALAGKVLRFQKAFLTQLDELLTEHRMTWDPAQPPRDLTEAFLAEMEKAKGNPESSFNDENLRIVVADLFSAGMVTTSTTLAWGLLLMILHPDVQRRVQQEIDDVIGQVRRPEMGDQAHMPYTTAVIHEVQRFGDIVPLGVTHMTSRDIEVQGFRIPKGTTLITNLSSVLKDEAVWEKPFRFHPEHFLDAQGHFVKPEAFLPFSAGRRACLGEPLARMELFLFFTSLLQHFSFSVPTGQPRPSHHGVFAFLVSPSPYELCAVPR
Chain of Cytochrome P450 2C9 (P11712 whole entry): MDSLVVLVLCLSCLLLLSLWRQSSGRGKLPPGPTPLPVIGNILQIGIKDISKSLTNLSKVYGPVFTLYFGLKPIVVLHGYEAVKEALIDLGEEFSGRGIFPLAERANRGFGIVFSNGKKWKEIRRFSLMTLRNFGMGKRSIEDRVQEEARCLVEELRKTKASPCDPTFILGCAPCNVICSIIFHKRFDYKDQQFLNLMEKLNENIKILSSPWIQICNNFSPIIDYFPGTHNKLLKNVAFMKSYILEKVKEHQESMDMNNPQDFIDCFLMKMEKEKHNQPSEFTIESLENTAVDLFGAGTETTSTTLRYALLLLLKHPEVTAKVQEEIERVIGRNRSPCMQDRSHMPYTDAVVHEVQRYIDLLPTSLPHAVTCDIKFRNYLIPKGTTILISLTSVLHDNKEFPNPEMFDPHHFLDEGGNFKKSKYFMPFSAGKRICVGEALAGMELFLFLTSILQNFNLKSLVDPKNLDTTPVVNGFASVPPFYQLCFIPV
Chain of Cytochrome P450 3A4 (P08684 whole entry): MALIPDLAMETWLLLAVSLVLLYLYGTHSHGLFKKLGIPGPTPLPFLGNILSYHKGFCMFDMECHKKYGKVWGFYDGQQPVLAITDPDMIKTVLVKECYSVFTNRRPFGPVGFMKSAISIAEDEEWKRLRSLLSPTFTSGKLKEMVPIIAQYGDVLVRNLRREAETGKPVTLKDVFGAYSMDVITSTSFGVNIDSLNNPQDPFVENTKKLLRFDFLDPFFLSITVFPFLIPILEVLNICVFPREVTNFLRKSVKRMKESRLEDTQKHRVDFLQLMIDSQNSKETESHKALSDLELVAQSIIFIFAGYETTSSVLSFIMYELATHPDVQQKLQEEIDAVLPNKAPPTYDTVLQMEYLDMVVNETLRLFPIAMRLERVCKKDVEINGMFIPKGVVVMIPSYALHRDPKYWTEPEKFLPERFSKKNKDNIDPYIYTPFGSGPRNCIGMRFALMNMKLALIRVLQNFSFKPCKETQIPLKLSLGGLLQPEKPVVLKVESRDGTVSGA

As for `CCCCNCCOCCOc1ccc(C)cc1[N+](=O)[O-]`, the values for the AC50 at Cytochrome P450 2C19, at Cytochrome P450 3A4 and at Cytochrome P450 2C9 were 39.8 µM (inconclusive), 14.1 µM (inconclusive) and 3.16 µM (inconclusive), respectively.

For the compound `Cc1nn(-c2ccccc2)c(O)c1/C=N/NC(=O)COc1ccccc1[N+](=O)[O-]`, the AC50 (in general, the concentration giving half of the maximal activity seen) in the test on INS1 was 3.4 µM (active).

On to `CCOC(=O)c1c(C)[nH]c(C(=O)OCC(=O)NC(C)(C)C)c1C`, for which, in the test with INS1, the AC50 is 5.11 µM (active).

For `COc1cc(C(=O)O/N=C(\N)Cc2ccc([N+](=O)[O-])cc2)cc(OC)c1OC`, the figures for the concentration for a half-maximal effect (EC50) in test [1], in [2] and in [3] were 23.3 µM (active), > 120 µM (not active) and 8.41 µM (active), respectively.

Consider `CC(=O)NNC(=O)c1csc(Cc2c(Cl)sc3ccc(Cl)cc23)n1`, for which the EC50 (usually the concentration at which the effect is half-maximal) in test [1] was 11.5 µM (active); in test [2], > 120 µM (not active); in test [3] it was 10.3 µM (active).

`O=C(Nc1ccccc1)c1cc([N+](=O)[O-])ccc1Cl`: the AC50 at Cytochrome P450 2D6 is 10 µM (inconclusive); on Cytochrome P450 3A4, 25.1 µM (inconclusive).

Regarding `O=S(=O)(c1ccc2c(c1)OCCO2)N1CCC(c2nc(O)c3nnn(Cc4ccc(F)cc4)c3n2)CC1`, in [4], the CC50 (in general, the concentration giving 50% cytotoxicity) was 37.6 µM (active).

Take `Cc1oc(-c2ccccc2Cl)nc1C[S+]([O-])CC(=O)NCCc1ccccc1` (stereo unspecified): the EC50 in [1], in [2] and in test [3] was > 120 µM (not active) each time.

`CCN(CC)CC(=O)Nc1sc2c(c1C(=O)c1ccccc1OC)CCC2`: the figures for the EC50 in [1], in test [2] and in [3] were > 120 µM (not active), 16.2 µM (active) and > 120 µM (not active), respectively.

As to `CCC1OC23CCCCC2C(C#N)(C(=N)O3)C1(C#N)C#N` (stereo unspecified), the values for the AC50 on Cytochrome P450 3A4 and at Cytochrome P450 2C9 were 25.1 µM (inconclusive) and 14.1 µM (inconclusive), respectively.

Regarding `COc1cccc(NC(=S)N(CCc2c(C)[nH]c3ccc(C)cc23)Cc2cccs2)c1`, the CC50 in test [4] is 13.4 µM (active).

In the case of `COc1ccccc1Nc1ncnc2c1c(C)c(C)n2CCO`, the 50% cytotoxic concentration (CC50) in [4] is > 50 µM (active).

For the compound `Cc1nc(C(=O)NNC(=O)c2c(-c3c(Cl)cccc3Cl)noc2C)cs1`, the AC50 in the test with INS1 was 6.91 µM (active).

`Cc1nc(NCc2ccco2)c2c3c(sc2n1)CCC3`: the AC50 at Cytochrome P450 2D6 was 25.1 µM (inconclusive); at Cytochrome P450 3A4 it was 15.8 µM (inconclusive); on Cytochrome P450 2C9 it was 12.6 µM (inconclusive).

As to `CCOC(=O)c1ccc(/N=c2\sc(C(=O)OC)cc(=O)n2Cc2ccc3c(c2)OCO3)cc1`, in test [4], the CC50 was 20.8 µM (active).

Take `Cc1ccc(-c2noc(CN3CCN(C(c4ccccc4)c4ccccc4)CC3)n2)cc1`: at Cytochrome P450 3A4, the AC50 is 35.5 µM (inconclusive).

Take `CCN(CC(=O)NCC1CCCO1)S(=O)(=O)c1ccc(Cl)cc1` (stereo unspecified): the EC50 (in [5]; on Streptokinase A; in the test with Streptococcus) was > 150 µM (not active) throughout.

Take `O=C(N/N=C/c1ccccc1)c1c(O)nc2ccccc2c1O`: the AC50 in the test with INS1 was 6.26 µM (active).

As for `CN1C(=O)/C(=C/c2ccc(C(F)(F)F)cc2)Sc2ccc(C(=O)N3CCN(c4ccccn4)CC3)cc21`, the results for the EC50 (in test [5]; at Streptokinase A; in the test on Streptococcus) were 1.53 µM (active), > 150 µM (not active) and 12.5 µM (active), respectively.

Regarding `CCOC(=O)C1CCCCN1C(=O)CCc1c(C)nc2ncnn2c1C` (stereo unspecified), the figures for the half-maximal effective concentration (EC50) in test [1], in test [2] and in test [3] were 14.7 µM (active), > 120 µM (not active) and 14.8 µM (active), respectively.

`Nc1nonc1-c1nc2ccccc2n1Cc1ccc(F)cc1Cl`: the half-maximal activity concentration (AC50) at Cytochrome P450 3A4 is 14.1 µM (inconclusive); on Cytochrome P450 2C9, 3.55 µM (inconclusive).

On to `COC(=O)C1=CN(c2ccc(OC)cc2)C=C(C(=O)OC)C1c1ccc(C)c([N+](=O)[O-])c1`, for which, in test [4], the CC50 is 48.1 µM (active).

As for `O=C(COc1ccc(Cl)cc1)NCc1nnc2c3ccccc3c(-c3ccccc3)nn12`, the CC50 in test [4] was 17.9 µM (active).

`CC(C)(C)OC(=O)N1CCC(CNC(=O)c2cccs2)CC1`: in the test with INS1, the AC50 was > 260 µM (inactive).

With `Cc1cccc(NC(=O)c2ccc(S(=O)(=O)N(C)CC3CCCO3)cc2)c1C` (stereo unspecified), the EC50 (in test [5]; on Streptokinase A; in the test on Streptococcus) was > 150 µM (not active) each time.

Take `Cc1ccc(N2C(=O)/C(=C\Nc3cc(C)on3)c3ccccc3C2=O)c(C)c1`: the EC50 is > 120 µM (not active) in [1], 19.6 µM (active) in [2] and 12.9 µM (active) in test [3].

Take `O=c1cc(CN2CCN(c3ccc(F)cc3)CC2)c2cc3c(cc2o1)CCCC3`: the AC50 at Cytochrome P450 3A4 is 14.1 µM (inconclusive).

Take `Cc1ccc(CCNC(=O)C2CC(c3ccccc3[N+](=O)[O-])=NO2)cc1` (stereo unspecified): the AC50 is 1.12 µM (inconclusive) on Cytochrome P450 3A4 and 39.8 µM (inconclusive) at Cytochrome P450 2C9.

For the compound `C=CCn1c(NCc2ccc(OC)cc2O)nc2ccccc21`, in test [4], the CC50 was 37.8 µM (active).

Regarding `Cc1ccccc1Nc1nc(N)nc(CN(C)Cc2ccccc2Cl)n1`, the EC50 (in [5]; on Streptokinase A; with Streptococcus) was > 150 µM (not active) in each case.

Consider `Cc1onc(-c2c(Cl)cccc2Cl)c1C(=O)Nc1nc(C(C)(C)C)cs1`, for which the CC50 in [4] was 17 µM (active). In addition, the values for the EC50 in test [1], in test [2] and in [3] were 14.4 µM (active), 16.7 µM (active) and 12.2 µM (active), respectively.

Take `FC(F)(F)c1ccccc1/C=N/n1c(S)nnc1C1CCCCC1`: the EC50 in [5] is 8.41 µM (active); at Streptokinase A, 32.4 µM (inconclusive); with Streptococcus, 15.7 µM (active).

Turning to `CSc1nc2c(c(=O)n1Cc1ccccc1)SC(C)C2` (stereo unspecified), the EC50 is 25.7 µM (active) in test [1], > 120 µM (not active) in [2] and 84.8 µM (active) in test [3].

Turning to `CC(Sc1nc2cc([N+](=O)[O-])ccc2n1-c1cccc(C(F)(F)F)c1)C(=O)NC(N)=O` (stereo unspecified), the EC50 (in [5]; on Streptokinase A; in the test with Streptococcus) was > 150 µM (not active) each time.

With `Cc1ccc(S(=O)(=O)Nc2ccccc2N(C)S(=O)(=O)c2ccc(C)cc2)cc1`, the concentration at half-maximal activity (AC50) in the test on INS1 was 10.2 µM (active).

In the case of `CCn1cnc2sc(C(=O)Oc3cccc(C)c3)c(C)c2c1=O`, the EC50 is 11.8 µM (active) in test [5], > 150 µM (not active) on Streptokinase A and 28.8 µM (active) in the test on Streptococcus.

As to `CC1(C)Cc2nc3sc4c(OCc5ccccc5)ncnc4c3cc2CO1`, the concentration giving a half-maximal response (EC50) was 4.04 µM (active) in [5], > 150 µM (not active) at Streptokinase A and 11 µM (active) with Streptococcus.

With `Cn1c(=O)c2c3c(sc2n2c(SCc4ccccc4)nnc12)CCCC3`, the CC50 in test [4] is > 50 µM (active).

For `Cc1ccccc1Nc1c(-c2ccccn2)nc2c(C)cccn12`, the figures for the EC50 (in [5]; on Streptokinase A; in the test with Streptococcus) were 19.3 µM (active), > 150 µM (not active) and > 150 µM (not active), respectively. Further, in the test with INS1, the AC50 is 6.81 µM (active).

`CC1(C)C[C@H](O)[C@]2(CO)CC[C@]3(C)C(=CCC4[C@@]5(C)CC[C@H](O)C(C)(C)C5CC[C@]43C)[C@@H]2C1` (stereo partly specified): the CC50 in test [4] is 36.2 µM (active).

`CCc1ccc(Nc2n[n+](-c3ccccc3)c(-c3ccc(OC)c(Br)c3)s2)cc1`: the CC50 in test [4] was 31.3 µM (active).

Regarding `COc1cc(Cc2cc(N)nc(N)n2)cc(OC)c1OC`, the EC50 in test [5] is 3.11 µM (active); on Streptokinase A it was > 150 µM (not active); with Streptococcus, > 150 µM (not active).

`COC(=O)C/C=C\[C@@H](C)[C@@H](/C=N\O[C@@H]1O[C@H](COC(C)=O)[C@H](OC(C)=O)[C@H](OC(C)=O)[C@H]1OC(C)=O)OC`: the AC50 is 3.98 µM (inconclusive) at Cytochrome P450 2D6 and 6.31 µM (inconclusive) at Cytochrome P450 3A4.

As to `S=C(CSc1ccccc1)Nc1cccc2ccccc12`, the AC50 at Cytochrome P450 3A4 is 3.98 µM (inconclusive).
